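Compound exposure: 48 hours, 5 concentrations, 96-well plates. GI50 marks 50% less growth.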 Activity calls are given as the source filed them. Cut-off read from the data, not from the text of the source: active = GI50 up to about 1.1 µM and inactive = higher.
Legend:
Assay in all cases: DTP human tumour cell line panel, 48 h
SK-MEL-28 = tested on: SK-MEL-28
Malme-3M = tested on: Malme-3M
RPMI-8226 = tested on: RPMI-8226
NCI-H226 = tested on: NCI-H226
HCT-116 = tested on: HCT-116
SR = tested on: SR
K562 = tested on: K562
TK-10 = tested on: TK-10
PC-3 = tested on: PC-3
DU-145 = tested on: DU-145
OVCAR-8 = tested on: OVCAR-8
SK-MEL-2 = tested on: SK-MEL-2
CAKI-1 = tested on: CAKI-1
LOX IMVI = tested on: LOX IMVI
NCI/ADR-RES = tested on: NCI/ADR-RES
SN12C = tested on: SN12C
HCT-15 = tested on: HCT-15
HOP-62 = tested on: HOP-62
SNB-75 = tested on: SNB-75
HCC 2998 = tested on: HCC 2998

Structure (SMILES) | GI50 (SK-MEL-28) | GI50 (Malme-3M) | GI50 (RPMI-8226) | GI50 (NCI-H226) | GI50 (HCT-116) | GI50 (SR) | GI50 (K562) | GI50 (TK-10) | GI50 (PC-3) | GI50 (DU-145) | GI50 (OVCAR-8) | GI50 (SK-MEL-2) | GI50 (CAKI-1) | GI50 (LOX IMVI) | GI50 (NCI/ADR-RES) | GI50 (SN12C) | GI50 (HCT-15) [µM] | GI50 (HOP-62) | GI50 (SNB-75) | GI50 (HCC 2998)
O=C1N[C@@H](COc2ccc(/C=N/c3ccc(CCc4ccc(/N=C/c5ccc(OC[C@@H]6COC(=O)N6)cc5)cc4)cc3)cc2)CO1 | > 100 µM (inactive) | > 100 µM (inactive) | > 100 µM (inactive) | > 100 µM (inactive) | > 100 µM (inactive) | > 100 µM (inactive) | > 100 µM (inactive) | > 100 µM (inactive) | > 100 µM (inactive) | > 100 µM (inactive) | > 100 µM (inactive) | > 100 µM (inactive) | > 100 µM (inactive) | > 100 µM (inactive) | > 100 µM (inactive) | > 100 µM (inactive) | > 100 | > 100 µM (inactive) | – | –
Cc1ccc(/N=C/C=C(\Nc2ccc(C)cc2)c2ccc3ccccc3c2)cc1 | 0.488 µM (active) | 0.238 µM (active) | 0.536 µM (active) | 1.4 µM (inactive) | 0.434 µM (active) | 0.39 µM (active) | 0.414 µM (active) | 1.2 µM (inactive) | 1.02 µM (active) | 1.15 µM (inactive) | > 100 µM (inactive) | 0.938 µM (active) | 0.45 µM (active) | 0.456 µM (active) | 0.445 µM (active) | – | 0.45 | 0.912 µM (active) | 0.468 µM (active) | –
S=C(N/N=C(/c1ccccc1)c1ccccn1)N1CCCCC1 | 0.604 µM (active) | 0.441 µM (active) | < 0.0202 µM (active) | 0.134 µM (active) | 0.01 µM (active) | < 0.0166 µM (active) | < 0.0161 µM (active) | 0.114 µM (active) | < 0.0151 µM (active) | 0.618 µM (active) | < 0.0281 µM (active) | 0.741 µM (active) | 0.143 µM (active) | – | – | – | < 0.0234 | 0.0785 µM (active) | 1.25 µM (inactive) | 0.219 µM (active)
C=CCCON(C(=O)OC(C)(C)C)C(C)(C)C | > 100 µM (inactive) | > 100 µM (inactive) | > 100 µM (inactive) | > 100 µM (inactive) | > 100 µM (inactive) | – | > 100 µM (inactive) | > 100 µM (inactive) | > 100 µM (inactive) | > 100 µM (inactive) | > 100 µM (inactive) | > 100 µM (inactive) | > 100 µM (inactive) | > 100 µM (inactive) | > 100 µM (inactive) | > 100 µM (inactive) | > 100 | > 100 µM (inactive) | > 100 µM (inactive) | –
C[N+](C)(C)C1=NNC2=Nc3ccccc3SC2=C1 | 19.4 µM (inactive) | 19.8 µM (inactive) | 12.9 µM (inactive) | 11.8 µM (inactive) | 13.9 µM (inactive) | – | 17.9 µM (inactive) | 37.1 µM (inactive) | 15.1 µM (inactive) | 27.6 µM (inactive) | 18.4 µM (inactive) | 14.1 µM (inactive) | 32.3 µM (inactive) | 18.8 µM (inactive) | 16.1 µM (inactive) | 21.9 µM (inactive) | 17.5 | 22.8 µM (inactive) | – | 24.4 µM (inactive)
COC(=O)c1c(O)ccc2c1c1c(n2-c2ccc(OC)cc2)C(=O)c2ccccc2C1=O | 29.9 µM (inactive) | 24.4 µM (inactive) | 9.73 µM (inactive) | 25.5 µM (inactive) | 16.9 µM (inactive) | – | 55.2 µM (inactive) | 12 µM (inactive) | 20.7 µM (inactive) | 21.5 µM (inactive) | 12.6 µM (inactive) | 26.1 µM (inactive) | 14.1 µM (inactive) | 21.7 µM (inactive) | 14.7 µM (inactive) | 28.9 µM (inactive) | 18.3 | 20.2 µM (inactive) | 23.9 µM (inactive) | 3.62 µM (inactive)
O=C1/C(=C/c2ccccc2)N=C(c2ccccc2)N1C1Nc2cc3c(cc2S1)NC(N1C(=O)/C(=C/c2ccccc2)N=C1c1ccccc1)S3 (configuration not stated) | 6.64 µM (inactive) | – | 5.4 µM (inactive) | 44.5 µM (inactive) | 32.5 µM (inactive) | 5.28 µM (inactive) | 10 µM (inactive) | 30.5 µM (inactive) | 11.8 µM (inactive) | 46.6 µM (inactive) | 4.33 µM (inactive) | 23.6 µM (inactive) | > 100 µM (inactive) | 3.74 µM (inactive) | 44.6 µM (inactive) | – | 24.2 | 16.9 µM (inactive) | – | 2.04 µM (inactive)
CC1(C)OC1COc1c2occc2cc2ccc(=O)oc12 (configuration not stated) | > 100 µM (inactive) | > 100 µM (inactive) | 39.2 µM (inactive) | > 100 µM (inactive) | > 100 µM (inactive) | – | > 100 µM (inactive) | – | > 100 µM (inactive) | > 100 µM (inactive) | 60.5 µM (inactive) | > 100 µM (inactive) | > 100 µM (inactive) | > 100 µM (inactive) | > 100 µM (inactive) | > 100 µM (inactive) | > 100 | > 100 µM (inactive) | > 100 µM (inactive) | > 100 µM (inactive)
C=C1C(=O)C=C[C@]2(C)CC[C@H]3C(=C)C(=O)O[C@@H]3[C@@H]12 | 1.91 µM (inactive) | 1.97 µM (inactive) | 0.346 µM (active) | – | 0.195 µM (active) | 1.79 µM (inactive) | 1.39 µM (inactive) | 0.419 µM (active) | 2.84 µM (inactive) | 2.09 µM (inactive) | 1.53 µM (inactive) | 2.55 µM (inactive) | 2.22 µM (inactive) | 1.8 µM (inactive) | 2.34 µM (inactive) | 2.96 µM (inactive) | 0.785 | 2.48 µM (inactive) | – | –
NC(Cc1cc(I)c(Oc2ccc(O)c(I)c2)c(I)c1)C(=O)O (configuration not stated) [RATHYRONINE] | 38.9 µM (inactive) | 36.8 µM (inactive) | 29.9 µM (inactive) | > 100 µM (inactive) | > 100 µM (inactive) | – | – | 42 µM (inactive) | > 100 µM (inactive) | > 100 µM (inactive) | > 100 µM (inactive) | 19.9 µM (inactive) | > 100 µM (inactive) | 34.8 µM (inactive) | > 100 µM (inactive) | > 100 µM (inactive) | > 100 | > 100 µM (inactive) | 54.3 µM (inactive) | –
CN/C(=N\N=C1/C(=O)Nc2ccccc21)SCC(=O)c1ccc(Br)cc1 | 15 µM (inactive) | 13.5 µM (inactive) | 5.58 µM (inactive) | 25.4 µM (inactive) | 4.53 µM (inactive) | – | 20.5 µM (inactive) | 15 µM (inactive) | 10.3 µM (inactive) | 6.82 µM (inactive) | 8.53 µM (inactive) | 50 µM (inactive) | 28.8 µM (inactive) | 8.38 µM (inactive) | 6.9 µM (inactive) | 12.5 µM (inactive) | 17.2 | 5.19 µM (inactive) | 8.47 µM (inactive) | 5.26 µM (inactive)
NCCCNc1ccc2c(c1)[n+]([O-])c1ccccc1[n+]2[O-] | 59.7 µM (inactive) | 17.4 µM (inactive) | 17.6 µM (inactive) | 12.3 µM (inactive) | 17.3 µM (inactive) | 19.1 µM (inactive) | 26.4 µM (inactive) | 28.4 µM (inactive) | 27.4 µM (inactive) | 27 µM (inactive) | 31.5 µM (inactive) | – | – | 7.14 µM (inactive) | > 100 µM (inactive) | 26 µM (inactive) | 22.9 | 22.7 µM (inactive) | – | 23.2 µM (inactive)
CC(=O)OCCOc1cc2c([nH]c3ccccc32)c(C)c2cccc1-2 | 2.58 µM (inactive) | 2.11 µM (inactive) | 2.43 µM (inactive) | 10.3 µM (inactive) | 3.3 µM (inactive) | 2.92 µM (inactive) | 1.36 µM (inactive) | 2.2 µM (inactive) | 1.76 µM (inactive) | 4.16 µM (inactive) | 2.59 µM (inactive) | 2.21 µM (inactive) | 2.12 µM (inactive) | 2.61 µM (inactive) | 3.53 µM (inactive) | 3.01 µM (inactive) | 2.94 | 4.6 µM (inactive) | 1.71 µM (inactive) | –
Nc1[nH]nc2ccccc12 | > 100 µM (inactive) | > 100 µM (inactive) | > 100 µM (inactive) | > 100 µM (inactive) | > 100 µM (inactive) | 62.2 µM (inactive) | 28.5 µM (inactive) | > 100 µM (inactive) | > 100 µM (inactive) | > 100 µM (inactive) | > 100 µM (inactive) | > 100 µM (inactive) | > 100 µM (inactive) | > 100 µM (inactive) | > 100 µM (inactive) | > 100 µM (inactive) | 54.7 | > 100 µM (inactive) | > 100 µM (inactive) | –
Nc1ccc(Oc2ccc(C34CC5C6CC7(c8ccc(Oc9ccc(N)cc9)cc8)CC5C(C3)C(C7)C6C4)cc2)cc1 | > 100 µM (inactive) | > 100 µM (inactive) | > 100 µM (inactive) | > 100 µM (inactive) | > 100 µM (inactive) | – | > 100 µM (inactive) | > 100 µM (inactive) | > 100 µM (inactive) | > 100 µM (inactive) | > 100 µM (inactive) | > 100 µM (inactive) | > 100 µM (inactive) | > 100 µM (inactive) | > 100 µM (inactive) | > 100 µM (inactive) | > 100 | > 100 µM (inactive) | – | –
CCOC(=O)c1c(N=C(S)Nc2ccc(Cl)cc2)sc2c1CCN(C)C2 | – | – | 33.9 µM (inactive) | > 100 µM (inactive) | > 100 µM (inactive) | – | 61 µM (inactive) | > 100 µM (inactive) | > 100 µM (inactive) | > 100 µM (inactive) | > 100 µM (inactive) | > 100 µM (inactive) | > 100 µM (inactive) | – | > 100 µM (inactive) | > 100 µM (inactive) | 97.9 | > 100 µM (inactive) | – | –

— ChEMBL document CHEMBL1201862, “PubChem BioAssay data set” (2004)
